32 compounds from US20230135152A1 (ACURASTEM INCORPORATED, priority 2020, published 2023) can be followed below.

Test [1] deals with T1, PIKFYVE (Homo sapiens, UniProt Q9Y2I7). The test can be described thus: PIKFYVE assay (luciferase ADP-Glo kinase assay, Promega). The class given is biochemical. The essentials:
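Kinase activity measured with a luciferase-based ADP-Glo read-out, which quantifies ADP formed by the enzyme.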
(In general: ADP-Glo first removes unused ATP, then detects ADP through luciferase.)

Test [2] deals with T1, PIKFYVE. Kind of test: Cell-based Pikfyve inhibition activity assay (EEA1 staining, mean vesicle size in BJ fibroblast cells). To be noted: Table 4, 4 hours treatment, 3 μM Apilimod = 100% inhibition. The essentials:
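BJ fibroblasts treated 4 h at 37° C with eleven 3-fold doses (0.03-3000 nM), then fixed and stained for EEA1. Confocal images (20×, 16 tiles/well) analysed for mean vesicle size. Normalised to 0.5% DMSO (0%) and 3 μM apilimod (100%); dose-response fitted with variable slope.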

T1 sequence (Q9Y2I7 whole entry): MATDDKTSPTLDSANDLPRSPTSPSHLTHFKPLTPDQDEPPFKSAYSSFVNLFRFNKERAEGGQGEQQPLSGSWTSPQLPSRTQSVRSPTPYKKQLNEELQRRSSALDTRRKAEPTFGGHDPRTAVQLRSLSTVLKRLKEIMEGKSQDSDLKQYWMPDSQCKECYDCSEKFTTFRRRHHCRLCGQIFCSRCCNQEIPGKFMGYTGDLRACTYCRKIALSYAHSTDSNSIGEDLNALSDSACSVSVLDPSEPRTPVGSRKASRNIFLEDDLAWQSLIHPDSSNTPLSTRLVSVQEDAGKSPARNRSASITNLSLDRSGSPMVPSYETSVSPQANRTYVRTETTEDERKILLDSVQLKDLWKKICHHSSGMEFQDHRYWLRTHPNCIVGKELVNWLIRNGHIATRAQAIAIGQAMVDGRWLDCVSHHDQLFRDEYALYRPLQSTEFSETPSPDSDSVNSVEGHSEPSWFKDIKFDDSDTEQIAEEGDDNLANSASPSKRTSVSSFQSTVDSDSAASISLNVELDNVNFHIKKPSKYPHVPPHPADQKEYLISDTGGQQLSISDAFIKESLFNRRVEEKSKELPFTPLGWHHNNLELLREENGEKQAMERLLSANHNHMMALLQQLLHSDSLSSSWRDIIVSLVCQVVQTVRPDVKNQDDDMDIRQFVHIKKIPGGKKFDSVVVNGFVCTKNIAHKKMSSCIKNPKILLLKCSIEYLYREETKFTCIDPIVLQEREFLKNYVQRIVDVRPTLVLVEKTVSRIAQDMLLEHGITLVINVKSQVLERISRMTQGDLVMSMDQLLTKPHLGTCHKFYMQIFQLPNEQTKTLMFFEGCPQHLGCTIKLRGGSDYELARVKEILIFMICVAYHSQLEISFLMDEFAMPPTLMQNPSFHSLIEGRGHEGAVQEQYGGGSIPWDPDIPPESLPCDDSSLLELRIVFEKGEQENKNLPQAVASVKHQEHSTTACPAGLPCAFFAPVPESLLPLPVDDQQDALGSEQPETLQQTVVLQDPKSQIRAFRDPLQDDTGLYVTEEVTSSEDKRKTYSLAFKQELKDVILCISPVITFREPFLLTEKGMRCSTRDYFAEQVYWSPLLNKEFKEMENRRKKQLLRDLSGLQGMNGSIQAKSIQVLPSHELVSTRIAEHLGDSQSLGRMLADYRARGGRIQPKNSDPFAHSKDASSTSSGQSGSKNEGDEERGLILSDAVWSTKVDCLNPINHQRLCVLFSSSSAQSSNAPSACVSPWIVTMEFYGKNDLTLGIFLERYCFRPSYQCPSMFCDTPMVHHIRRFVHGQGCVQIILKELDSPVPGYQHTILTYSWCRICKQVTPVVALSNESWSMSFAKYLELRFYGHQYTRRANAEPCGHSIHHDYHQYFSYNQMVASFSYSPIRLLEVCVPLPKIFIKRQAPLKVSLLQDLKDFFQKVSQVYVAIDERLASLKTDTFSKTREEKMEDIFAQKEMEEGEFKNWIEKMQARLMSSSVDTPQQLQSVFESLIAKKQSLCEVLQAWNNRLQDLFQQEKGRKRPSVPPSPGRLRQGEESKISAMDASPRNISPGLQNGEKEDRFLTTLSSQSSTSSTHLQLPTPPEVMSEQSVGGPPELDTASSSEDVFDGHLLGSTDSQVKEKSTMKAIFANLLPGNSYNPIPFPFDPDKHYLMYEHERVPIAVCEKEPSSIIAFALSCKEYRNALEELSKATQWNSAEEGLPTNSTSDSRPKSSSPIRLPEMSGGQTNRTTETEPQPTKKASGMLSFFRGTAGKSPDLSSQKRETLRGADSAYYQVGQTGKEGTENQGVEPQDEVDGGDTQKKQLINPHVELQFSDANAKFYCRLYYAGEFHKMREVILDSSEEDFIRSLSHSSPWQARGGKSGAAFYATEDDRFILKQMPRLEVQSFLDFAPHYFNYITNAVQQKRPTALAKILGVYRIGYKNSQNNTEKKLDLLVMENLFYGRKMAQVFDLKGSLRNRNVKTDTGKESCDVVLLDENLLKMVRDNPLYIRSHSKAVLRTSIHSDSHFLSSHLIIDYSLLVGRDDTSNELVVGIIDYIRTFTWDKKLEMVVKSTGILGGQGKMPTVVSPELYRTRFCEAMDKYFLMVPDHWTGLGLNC

`Cc1cccc(-c2cc(C)n(-c3cc(N4CCOCC4)nc(OCCc4cnn(C)c4)n3)n2)c1` [Compound 219, 4-(2-(2-(1-methyl-1H-pyrazol-4-yl)ethoxy)-6-(5-methyl-3-(m-tolyl)-1H-pyrazol-1-yl)pyrimidin-4-yl)morpholine] returned an IC50 in test [1] (Table 3) of under 3 nM. Further, the EC50 in test [2] lay in the range of 20 to 100 nM.

In test [1] (Table 2), `Cn1cc(C(O)C#Cc2nc(N3CCOCC3)cc(-n3ccc(-c4ccccc4)n3)n2)cn1` (stereo not shown) [Compound 80, 1-(1-methyl-1H-pyrazol-4-yl)-3-(4-morpholino-6-(3-phenyl-1H-pyrazol-1-yl)pyrimidin-2-yl)prop-2-yn-1-ol] came in with an IC50 of under 5 nM. Moreover, the EC50 in test [2] is 20 to 100 nM.

In test [1] (Table 3), `Cc1cccc(-c2ccn(-c3cc(N4CCOCC4)nc([C@H]4CCCO4)n3)n2)c1` (single isomer, unassigned) [Compound 327] gave an IC50 of 3 to 10 nM. In test [2], this compound came in with an EC50 of 500 to 5000 nM.

In the case of `CN(C)Cc1cc(-c2ccccc2)nn1-c1cc(N2CCOCC2)nc(OCCc2cnn(C)c2)n1` [Compound 75, N,N-dimethyl-1-(1-(2-(2-(1-methyl-1H-pyrazol-4-yl)ethoxy)-6-morpholinopyrimidin-4-yl)-3-phenyl-1H-pyrazol-5-yl)methanamine], the IC50 in test [1] (Table 2) was in the range of 5 to 100 nM. Moreover, the EC50 in test [2] lay in the range of 100 to 500 nM.

`CO[C@@H](CO)c1nc(N2CCOCC2)cc(-n2ccc(-c3cn(C)c4ccccc34)n2)n1` (single isomer, unassigned) [Compound 321] showed an IC50 in test [1] (Table 3) of 3 to 10 nM. In addition, the EC50 in test [2] lay in the range of 500 to 5000 nM.

With `CO[C@H](CO)c1nc(N2CCOCC2)cc(-n2nc(-c3csc4ccccc34)cc2C)n1` [Compound 278, (S)-2-(4-(3-(benzo[b]thiophen-3-yl)-5-methyl-1H-pyrazol-1-yl)-6-morpholinopyrimidin-2-yl)-2-methoxyethan-1-ol], in test [1] (Table 3), the IC50 was under 3 nM. The EC50 in test [2] lay in the range of 500 to 5000 nM.

In test [1] (Table 3), `C[C@@H](O)c1cccc(-c2ccn(-c3cc(N4CCOCC4)nc(OCCc4cnn(C)c4)n3)n2)c1` (single isomer, unassigned) [Compound 315] gave a concentration for half-maximal inhibition (IC50) of under 3 nM. This compound also registered an EC50 in test [2] of under 20 nM.

`Cn1cc(CCOc2nc(N3CCOCC3)cc(-n3ccc(-c4cccc(F)c4)n3)n2)cn1` [Compound 195, 4-(6-(3-(3-fluorophenyl)-1H-pyrazol-1-yl)-2-(2-(1-methyl-1H-pyrazol-4-yl)ethoxy)pyrimidin-4-yl)morpholine] displayed a half-inhibitory concentration (IC50) in test [1] (Table 3) of under 3 nM. Also, the EC50 in test [2] is 20 to 100 nM.

In turn, `CC#CCCOc1nc(N2CCOCC2)cc(-n2ccc(-c3cccc(C)c3)n2)n1` [Compound 104, 4-(2-(pent-3-yn-1-yloxy)-6-(3-(m-tolyl)-1H-pyrazol-1-yl)pyrimidin-4-yl)morpholine] came in with a half-inhibitory concentration (IC50) in test [1] (Table 3) of under 3 nM. In test [2], this compound showed a concentration for a half-maximal effect (EC50) of 20 to 100 nM.

On to `Cc1cccc(-c2ccn(-c3cc(N4CCOCC4)nc(OC[C@@H](O)c4ccccc4)n3)n2)c1` (single isomer, unassigned) [Compound 57], for which the concentration for half-maximal inhibition (IC50) in test [1] (Table 2) is under 5 nM. This compound had a half-maximal effective concentration (EC50) in test [2] of 20 to 100 nM.

In test [1] (Table 2), `Cc1cccc(-c2cc(CN(C)C)n(-c3cc(N4CCOCC4)nc(OCCc4cnn(C)c4)n3)n2)c1` [Compound 86, N,N-dimethyl-1-(1-(2-(2-(1-methyl-1H-pyrazol-4-yl)ethoxy)-6-morpholinopyrimidin-4-yl)-3-(m-tolyl)-1H-pyrazol-5-yl)methanamine] had an IC50 of under 5 nM. The compound further showed an EC50 in test [2] of 20 to 100 nM.

On to `C#CCCCOc1nc(N2CCOCC2)cc(-n2ccc(-c3cccc(C)c3)n2)n1` [Compound 108, 4-(2-(pent-4-yn-1-yloxy)-6-(3-(m-tolyl)-1H-pyrazol-1-yl)pyrimidin-4-yl)morpholine], for which, in test [1] (Table 3), the IC50 is 3 to 10 nM. Moreover, the EC50 in test [2] is 20 to 100 nM.

`CO[C@H](CO)c1nc(N2CCO[C@H](C)C2)cc(-n2ccc(-c3cccc(C)c3)n2)n1` (single isomer, unassigned) [Compound 307] had an IC50 in test [1] (Table 3) of 10 to 100 nM. In test [2], the EC50 was over 5000 nM.

`Cc1cccc(-c2ccn(-c3cc(N4CCOCC4)nc([C@@H]4CCOC4)n3)n2)c1` (single isomer, unassigned) [Compound 330] gave an IC50 in test [1] (Table 3) of 3 to 10 nM. In test [2], the EC50 was over 5000 nM.

Consider `Cc1cccc(-c2ccn(-c3cc(N4CCOCC4)nc(OCC4COC4)n3)n2)c1` [Compound 122, 4-(2-(oxetan-3-ylmethoxy)-6-(3-(m-tolyl)-1H-pyrazol-1-yl)pyrimidin-4-yl)morpholine], for which, in test [1] (Table 3), the IC50 was 3 to 10 nM. In test [2], the EC50 lay in the range of 100 to 500 nM.

In test [1] (Table 3), `Cn1cc(CCOc2nc(N3CCOCC3)cc(-n3ccc(-c4ccccc4)n3)n2)cn1` [Compound 189, 4-(2-(2-(1-methyl-1H-pyrazol-4-yl)ethoxy)-6-(3-phenyl-1H-pyrazol-1-yl)pyrimidin-4-yl)morpholine] came in with an IC50 of under 3 nM. Further, the concentration giving a half-maximal response (EC50) in test [2] fell in the range of 20 to 100 nM.

`Cn1cc(CCOc2nc(N3CCOCC3)cc(-n3ccc(-c4cn(C)c5ccccc45)n3)n2)cn1` [Compound 232, 4-(6-(3-(1-methyl-1H-indol-3-yl)-1H-pyrazol-1-yl)-2-(2-(1-methyl-1H-pyrazol-4-yl)ethoxy)pyrimidin-4-yl)morpholine]: in test [1] (Table 3), the 50% inhibitory concentration (IC50) is 100 to 5000 nM. This compound gave a half-maximal effective concentration (EC50) in test [2] of over 5000 nM.

In turn, `Cc1cccc(-c2ccn(-c3cc(N4CCOCC4)nc(OCCNc4ccccc4)n3)n2)c1` [Compound 99, N-(2-((4-morpholino-6-(3-(m-tolyl)-1H-pyrazol-1-yl)pyrimidin-2-yl)oxy)ethyl)aniline] had a half-inhibitory concentration (IC50) in test [1] (Table 3) of 10 to 100 nM. Besides, the EC50 in test [2] is 100 to 500 nM.

In turn, `CO[C@H](CO)c1nc(N2CCOCC2)cc(-n2ccc(-c3cccc4ncsc34)n2)n1` [Compound 274, (S)-2-(4-(3-(benzo[d]thiazol-7-yl)-1H-pyrazol-1-yl)-6-morpholinopyrimidin-2-yl)-2-methoxyethan-1-ol] returned an IC50 in test [1] (Table 3) of 100 to 5000 nM. The EC50 in test [2] is over 5000 nM.

Take `Cc1cccc(-c2ccn(-c3cc(N4CCOCC4)nc([C@H]4CCOC4)n3)n2)c1` (single isomer, unassigned) [Compound 329]: the half-maximal inhibitory concentration (IC50) in test [1] (Table 3) is 3 to 10 nM. In test [2], this compound displayed a concentration for a half-maximal effect (EC50) of over 5000 nM.

In test [1] (Table 2), `Cc1cccc(-c2ccn(-c3cc(N4CCOCC4)nc(C(O)CC#N)n3)n2)c1` (stereo not shown) [Compound 76, 3-hydroxy-3-(4-morpholino-6-(3-(m-tolyl)-1H-pyrazol-1-yl)pyrimidin-2-yl)propanenitrile] gave an IC50 of under 5 nM. In test [2], this compound gave an EC50 of 20 to 100 nM.

As to `Cc1cccc(-c2ccn(-c3cc(N4CCOCC4)nc(C)n3)n2)c1` [Compound 81, 4-(2-methyl-6-(3-(m-tolyl)-1H-pyrazol-1-yl)pyrimidin-4-yl)morpholine], the IC50 in test [1] (Table 2) was under 5 nM. The compound also displayed a concentration for a half-maximal effect (EC50) in test [2] of 100 to 500 nM.

In the case of `Cc1ccccc1-c1ccn(-c2cc(N3CCOCC3)nc(OCCc3cnn(C)c3)n2)n1` [Compound 125, 4-(2-(2-(1-methyl-1H-pyrazol-4-yl)ethoxy)-6-(3-(o-tolyl)-1H-pyrazol-1-yl)pyrimidin-4-yl)morpholine], in test [1] (Table 3), the concentration for half-maximal inhibition (IC50) lay within 10 to 100 nM. For the same compound, the EC50 in test [2] lay within 100 to 500 nM.

For the compound `Cc1cccc(-c2ccn(-c3cc(N4CCOCC4)nc(OCCO)n3)n2)c1` [Compound 121, 2-((4-morpholino-6-(3-(m-tolyl)-1H-pyrazol-1-yl)pyrimidin-2-yl)oxy)ethan-1-ol], in test [1] (Table 3), the IC50 is 3 to 10 nM. This compound displayed a concentration for a half-maximal effect (EC50) in test [2] of 100 to 500 nM.

Regarding `Cn1cc(COCc2nc(N3CCOCC3)cc(-n3ccc(-c4ccccc4)n3)n2)cn1` [Compound 298, 4-(2-(((1-methyl-1H-pyrazol-4-yl)methoxy)methyl)-6-(3-phenyl-1H-pyrazol-1-yl)pyrimidin-4-yl)morpholine], the 50% inhibitory concentration (IC50) in test [1] (Table 3) was in the range of 3 to 10 nM. Besides, in test [2], the EC50 lay in the range of 500 to 5000 nM.

`Cn1cc(CCOc2nc(N3CCOCC3)cc(-n3ccc(Oc4ccncc4)n3)n2)cn1` [Compound 303, 4-(2-(2-(1-methyl-1H-pyrazol-4-yl)ethoxy)-6-(3-(pyridin-4-yloxy)-1H-pyrazol-1-yl)pyrimidin-4-yl)morpholine] displayed an IC50 in test [1] (Table 3) of 100 to 5000 nM. For the same compound, the EC50 in test [2] was over 5000 nM.

On to `Cc1cccc(-c2ccn(-c3cc(N4CCOCC4)nc(OCCN)n3)n2)c1` [Compound 209, 2-((4-morpholino-6-(3-(m-tolyl)-1H-pyrazol-1-yl)pyrimidin-2-yl)oxy)ethan-1-amine], for which the IC50 in test [1] (Table 3) lay within 10 to 100 nM. For the same compound, in test [2], the EC50 lay in the range of 100 to 500 nM.

In test [1] (Table 3), `Cc1cccc(-c2ccn(-c3cc(N4CCOCC4)nc(COCc4cn[nH]c4)n3)n2)c1` [Compound 300, 4-(2-(((1H-pyrazol-4-yl)methoxy)methyl)-6-(3-(m-tolyl)-1H-pyrazol-1-yl)pyrimidin-4-yl)morpholine] showed an IC50 of under 3 nM. In test [2], this compound showed an EC50 of 20 to 100 nM.

In test [1] (Table 2), `Cn1cc(CCOc2nc(N3CCOCC3)cc(-n3ccc(-c4cccnc4)n3)n2)cn1` [Compound 71, 4-(2-(2-(1-methyl-1H-pyrazol-4-yl)ethoxy)-6-(3-(pyridin-3-yl)-1H-pyrazol-1-yl)pyrimidin-4-yl)morpholine] gave a concentration for half-maximal inhibition (IC50) of under 5 nM. Besides, the half-maximal effective concentration (EC50) in test [2] fell in the range of 500 to 5000 nM.

`CO[C@@H](CO)c1nc(N2CCOCC2)cc(-n2ccc(-c3cccc4[nH]ccc34)n2)n1` [Compound 269, (R)-2-(4-(3-(1H-indol-4-yl)-1H-pyrazol-1-yl)-6-morpholinopyrimidin-2-yl)-2-methoxyethan-1-ol] returned an IC50 in test [1] (Table 3) of 10 to 100 nM. The EC50 in test [2] was in the range of 500 to 5000 nM.

With `COCc1nc(N2CCOCC2)cc(-n2ccc(-c3ccccc3)n2)n1` [Compound 69], the IC50 in test [1] (Table 2) lay in the range of 5 to 100 nM. The compound further displayed an EC50 in test [2] of 500 to 5000 nM.

`Cn1cc(CCOc2nc(N3CCOCC3)cc(-n3ccc(-c4cccc(C#N)c4)n3)n2)cn1` [Compound 126, 3-(1-(2-(2-(1-methyl-1H-pyrazol-4-yl)ethoxy)-6-morpholino-pyrimidin-4-yl)-1H-pyrazol-3-yl)benzonitrile]: the IC50 in test [1] (Table 3) fell in the range of 10 to 100 nM. The concentration for a half-maximal effect (EC50) in test [2] lay within 100 to 500 nM.

What is called IC50 is the midpoint of a concentration-inhibition curve. High values mean weaker potency in that assay, low ones greater potency in that assay. As a reminder, the EC50 is the concentration giving half of the maximal effect. The low end stands for greater potency, the high end for weaker potency.
